Source: ChEMBL document CHEMBL4507292 (2021)

Tests used:
[1] = biological target: Mitogen-activated protein kinase kinase kinase 3 (Homo sapiens) (UniProt Q99759); settings: Compound concentration 1000.0 nM
[2] = biological target: Phosphatidylinositol 5-phosphate 4-kinase type-2 gamma (Homo sapiens) (UniProt Q8TBX8); settings: Compound concentration 1000.0 nM
[3] = tested on: Proto-oncogene tyrosine-protein kinase receptor Ret (Homo sapiens), P07949 [V804L]; settings: Compound concentration 1000.0 nM
[4] = biological target: Tyrosine-protein kinase receptor UFO (Homo sapiens) (UniProt P30530); settings: Compound concentration 1000.0 nM
[5] = biological target: Serine/threonine-protein kinase PLK2 (Homo sapiens) (UniProt Q9NYY3); settings: Compound concentration 1000.0 nM
[6] = biological target: Phosphatidylinositol 3-kinase catalytic subunit type 3 (Homo sapiens) (UniProt Q8NEB9); settings: Compound concentration 1000.0 nM
[7] = biological target: Serine/threonine-protein kinase OSR1 (Homo sapiens) (UniProt O95747); settings: Compound concentration 1000.0 nM
[8] = biological target: SRSF protein kinase 3 (Homo sapiens) (UniProt Q9UPE1); settings: Compound concentration 1000.0 nM
[9] = biological target: Ephrin type-B receptor 6 (Homo sapiens) (UniProt O15197); settings: Compound concentration 1000.0 nM
[10] = biological target: D(3) dopamine receptor (Homo sapiens) (UniProt P35462); settings: Compound concentration 10.0 uM
[11] = tested on: Receptor-type tyrosine-protein kinase FLT3 (Homo sapiens), P36888 [N841I]; settings: Compound concentration 1000.0 nM
[12] = biological target: Proto-oncogene tyrosine-protein kinase receptor Ret (Homo sapiens) (UniProt P07949); settings: Compound concentration 1000.0 nM
[13] = biological target: Serine/threonine-protein kinase WNK3 (Homo sapiens) (UniProt Q9BYP7); settings: Compound concentration 1000.0 nM
[14] = biological target: Casein kinase I isoform alpha-like (Homo sapiens) (UniProt Q8N752); settings: Compound concentration 1000.0 nM
[15] = biological target: Serine/threonine-protein kinase BRSK1 (Homo sapiens) (UniProt Q8TDC3); settings: Compound concentration 1000.0 nM
[16] = biological target: Ephrin type-A receptor 8 (Homo sapiens) (UniProt P29322); settings: Compound concentration 1000.0 nM
[17] = biological target: Serine/threonine-protein kinase tousled-like 1 (Homo sapiens) (UniProt Q9UKI8); settings: Compound concentration 1000.0 nM
[18] = biological target: Tyrosine-protein kinase SYK (Homo sapiens) (UniProt P43405); settings: Compound concentration 1000.0 nM
[19] = biological target: Mitogen-activated protein kinase 11 (Homo sapiens) (UniProt Q15759); settings: Compound concentration 1000.0 nM
[20] = biological target: Mitogen-activated protein kinase kinase kinase 11 (Homo sapiens) (UniProt Q16584); settings: Compound concentration 1000.0 nM
[21] = biological target: Dual specificity testis-specific protein kinase 1 (Homo sapiens) (UniProt Q15569); settings: Compound concentration 1000.0 nM
[22] = biological target: Cyclin-dependent kinase 14 (Homo sapiens) (UniProt O94921); settings: Compound concentration 1000.0 nM
[23] = biological target: Phosphatidylinositol 4-phosphate 3-kinase C2 domain-containing subunit beta (Homo sapiens) (UniProt O00750); settings: Compound concentration 1000.0 nM
[24] = biological target: Myosin-IIIa (Homo sapiens) (UniProt Q8NEV4); settings: Compound concentration 1000.0 nM
[25] = biological target: Serine/threonine-protein kinase 4 (Homo sapiens) (UniProt Q13043); settings: Compound concentration 1000.0 nM
[26] = biological target: Serine/threonine-protein kinase 33 (Homo sapiens) (UniProt Q9BYT3); settings: Compound concentration 1000.0 nM
[27] = biological target: LIM domain kinase 2 (Homo sapiens) (UniProt P53671); settings: Compound concentration 1000.0 nM
[28] = biological target: Cyclin-dependent kinase 11A (Homo sapiens) (UniProt Q9UQ88); settings: Compound concentration 1000.0 nM
[29] = tested on: Tyrosine-protein kinase ABL1 (Homo sapiens), P00519 [Y253F]; settings: Compound concentration 1000.0 nM
[30] = biological target: Histamine H2 receptor (Homo sapiens) (UniProt P25021); settings: Compound concentration 10.0 uM
[31] = biological target: Death-associated protein kinase 2 (Homo sapiens) (UniProt Q9UIK4); settings: Compound concentration 1000.0 nM
[32] = biological target: Calcium/calmodulin-dependent protein kinase type IV (Homo sapiens) (UniProt Q16566); settings: Compound concentration 1000.0 nM
[33] = tested on: Epidermal growth factor receptor (Homo sapiens), P00533 [G719C]; settings: Compound concentration 1000.0 nM
[34] = biological target: Microtubule-associated serine/threonine-protein kinase 1 (Homo sapiens) (UniProt Q9Y2H9); settings: Compound concentration 1000.0 nM
[35] = biological target: Cyclin-dependent kinase 2 homolog (Plasmodium falciparum (isolate 3D7)) (UniProt P61075); settings: Compound concentration 1000.0 nM
[36] = biological target: Ribosomal protein S6 kinase alpha-2 (Homo sapiens) (UniProt Q15349); settings: Compound concentration 1000.0 nM
[37] = biological target: Calcium/calmodulin-dependent protein kinase kinase 1 (Homo sapiens) (UniProt Q8N5S9); settings: Compound concentration 1000.0 nM
[38] = biological target: Cyclin-dependent kinase 9 (Homo sapiens) (UniProt P50750); settings: Compound concentration 1000.0 nM
[39] = biological target: Histamine H2 receptor (Homo sapiens) (UniProt P25021)
[40] = biological target: Polyunsaturated fatty acid 5-lipoxygenase (Homo sapiens) (UniProt P09917); test: Lipoxygenase 5-LO Eurofins-Panlabs enzyme assay; settings: Compound concentration 10.0 uM
[41] = biological target: voltage-gated sodium channel, site 2 (Rattus norvegicus, UniProt F1LQQ7+O08562+O88420+O88457+P04774+P04775+P08104+P15389+P15390+Q62968); test: Inhibition of Sodium Channel, Site 2 at 10 µM in the Eurofins-Panlabs radioligand binding assay (Eurofins_assay_279510); assay type: protein assay; set-up: ligand concentration 5 nM, non-specific ligand with concentration 100 µM Veratridine, incubation time 60 min, incubation temperature 37 °C; settings: male, Wistar, rat whole brain (except cerebellum) membranes, probe [3H] Batrachotoxinin, 5 nM, compound concentration 10 uM
[42] = biological target: Receptor-type tyrosine-protein phosphatase C (Homo sapiens) (UniProt P08575); test: Inhibition of Protein Tyrosine Phosphatase, PTPRC (CD45) at 10 µM in the Eurofins-Panlabs enzyme assay (Eurofins_assay_190010); settings: Compound concentration 10.0 uM

Histamine H2 receptor (Homo sapiens), sequence (P25021 whole entry): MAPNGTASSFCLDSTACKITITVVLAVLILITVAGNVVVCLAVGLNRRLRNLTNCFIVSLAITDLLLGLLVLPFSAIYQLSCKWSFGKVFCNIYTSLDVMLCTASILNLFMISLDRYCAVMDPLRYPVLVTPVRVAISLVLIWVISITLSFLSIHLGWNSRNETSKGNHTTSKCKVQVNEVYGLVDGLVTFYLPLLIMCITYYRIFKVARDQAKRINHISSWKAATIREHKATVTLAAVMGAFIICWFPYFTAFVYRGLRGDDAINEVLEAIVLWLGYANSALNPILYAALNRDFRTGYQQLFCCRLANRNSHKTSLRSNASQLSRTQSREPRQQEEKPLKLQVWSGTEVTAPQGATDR
Serine/threonine-protein kinase tousled-like 1 (Homo sapiens), sequence (Q9UKI8 whole entry): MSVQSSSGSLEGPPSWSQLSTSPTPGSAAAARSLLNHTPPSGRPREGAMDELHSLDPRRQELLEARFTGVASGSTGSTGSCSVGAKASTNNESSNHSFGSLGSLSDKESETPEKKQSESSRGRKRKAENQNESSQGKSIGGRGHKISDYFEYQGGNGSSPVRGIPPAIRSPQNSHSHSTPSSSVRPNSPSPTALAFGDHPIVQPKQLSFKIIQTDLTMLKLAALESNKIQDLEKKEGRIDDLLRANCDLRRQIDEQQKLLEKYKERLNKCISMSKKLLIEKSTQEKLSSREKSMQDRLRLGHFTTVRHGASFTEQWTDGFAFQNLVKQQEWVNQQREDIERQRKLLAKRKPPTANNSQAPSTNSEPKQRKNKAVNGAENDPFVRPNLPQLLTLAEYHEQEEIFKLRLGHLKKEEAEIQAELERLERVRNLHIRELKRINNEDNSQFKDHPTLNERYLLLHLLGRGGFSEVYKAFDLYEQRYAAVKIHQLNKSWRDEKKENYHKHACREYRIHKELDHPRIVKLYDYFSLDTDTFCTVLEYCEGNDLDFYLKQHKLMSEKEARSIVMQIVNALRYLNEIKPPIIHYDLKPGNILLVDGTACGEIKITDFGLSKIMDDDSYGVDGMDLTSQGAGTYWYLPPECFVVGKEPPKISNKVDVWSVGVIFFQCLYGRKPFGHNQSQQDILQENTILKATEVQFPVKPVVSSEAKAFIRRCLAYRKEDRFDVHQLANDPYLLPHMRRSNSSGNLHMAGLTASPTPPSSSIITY
Calcium/calmodulin-dependent protein kinase type IV (Homo sapiens), sequence (Q16566 whole entry): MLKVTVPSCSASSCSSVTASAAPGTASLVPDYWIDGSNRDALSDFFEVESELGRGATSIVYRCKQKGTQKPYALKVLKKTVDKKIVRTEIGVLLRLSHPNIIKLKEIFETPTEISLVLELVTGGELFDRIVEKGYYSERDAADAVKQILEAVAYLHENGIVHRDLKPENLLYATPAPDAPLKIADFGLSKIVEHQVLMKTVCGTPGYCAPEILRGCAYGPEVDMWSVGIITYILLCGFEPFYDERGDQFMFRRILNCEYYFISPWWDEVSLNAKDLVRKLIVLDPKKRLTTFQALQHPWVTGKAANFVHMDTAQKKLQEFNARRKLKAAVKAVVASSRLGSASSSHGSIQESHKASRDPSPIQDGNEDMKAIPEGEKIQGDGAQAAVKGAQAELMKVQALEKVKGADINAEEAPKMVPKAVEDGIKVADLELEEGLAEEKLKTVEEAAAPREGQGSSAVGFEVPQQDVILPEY
SRSF protein kinase 3 (Homo sapiens), sequence (Q9UPE1 whole entry): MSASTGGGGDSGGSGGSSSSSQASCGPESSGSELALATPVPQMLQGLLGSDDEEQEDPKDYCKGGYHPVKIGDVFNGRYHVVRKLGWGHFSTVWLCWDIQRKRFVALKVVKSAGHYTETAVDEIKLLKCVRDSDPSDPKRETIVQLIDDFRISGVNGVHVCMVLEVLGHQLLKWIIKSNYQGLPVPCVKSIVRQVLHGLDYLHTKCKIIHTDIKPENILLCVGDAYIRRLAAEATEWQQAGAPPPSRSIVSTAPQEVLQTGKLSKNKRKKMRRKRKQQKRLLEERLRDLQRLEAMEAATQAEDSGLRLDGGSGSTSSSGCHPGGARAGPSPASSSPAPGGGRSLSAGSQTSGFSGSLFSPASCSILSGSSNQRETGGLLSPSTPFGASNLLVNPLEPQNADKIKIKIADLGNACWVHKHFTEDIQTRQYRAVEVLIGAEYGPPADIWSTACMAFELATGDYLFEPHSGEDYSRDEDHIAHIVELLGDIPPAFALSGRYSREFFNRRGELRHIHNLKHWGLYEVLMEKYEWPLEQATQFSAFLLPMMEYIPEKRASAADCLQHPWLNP
Mitogen-activated protein kinase kinase kinase 11 (Homo sapiens), sequence (Q16584 whole entry, looked up): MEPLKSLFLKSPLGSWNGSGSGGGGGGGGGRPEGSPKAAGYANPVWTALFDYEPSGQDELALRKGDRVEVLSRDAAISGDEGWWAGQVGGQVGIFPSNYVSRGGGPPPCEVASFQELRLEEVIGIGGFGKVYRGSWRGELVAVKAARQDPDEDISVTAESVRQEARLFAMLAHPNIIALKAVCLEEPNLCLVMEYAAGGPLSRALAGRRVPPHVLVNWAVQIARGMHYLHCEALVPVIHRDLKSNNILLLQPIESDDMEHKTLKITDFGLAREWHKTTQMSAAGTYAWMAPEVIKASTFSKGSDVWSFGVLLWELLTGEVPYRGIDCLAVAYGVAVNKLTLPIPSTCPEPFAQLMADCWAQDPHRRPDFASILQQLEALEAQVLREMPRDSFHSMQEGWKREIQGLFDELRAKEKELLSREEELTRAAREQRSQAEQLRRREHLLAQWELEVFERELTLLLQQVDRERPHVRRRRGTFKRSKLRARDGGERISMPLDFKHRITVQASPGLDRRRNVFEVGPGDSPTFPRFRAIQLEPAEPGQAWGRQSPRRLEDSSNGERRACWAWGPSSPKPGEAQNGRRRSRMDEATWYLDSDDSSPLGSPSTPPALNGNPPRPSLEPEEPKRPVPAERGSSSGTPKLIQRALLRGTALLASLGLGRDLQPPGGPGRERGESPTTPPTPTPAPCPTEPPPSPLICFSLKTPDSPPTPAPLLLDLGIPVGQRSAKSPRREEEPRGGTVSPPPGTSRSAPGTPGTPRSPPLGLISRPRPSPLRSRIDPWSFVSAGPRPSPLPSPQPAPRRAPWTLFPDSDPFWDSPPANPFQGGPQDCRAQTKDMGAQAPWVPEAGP
Serine/threonine-protein kinase BRSK1 (Homo sapiens), sequence (Q8TDC3 whole entry): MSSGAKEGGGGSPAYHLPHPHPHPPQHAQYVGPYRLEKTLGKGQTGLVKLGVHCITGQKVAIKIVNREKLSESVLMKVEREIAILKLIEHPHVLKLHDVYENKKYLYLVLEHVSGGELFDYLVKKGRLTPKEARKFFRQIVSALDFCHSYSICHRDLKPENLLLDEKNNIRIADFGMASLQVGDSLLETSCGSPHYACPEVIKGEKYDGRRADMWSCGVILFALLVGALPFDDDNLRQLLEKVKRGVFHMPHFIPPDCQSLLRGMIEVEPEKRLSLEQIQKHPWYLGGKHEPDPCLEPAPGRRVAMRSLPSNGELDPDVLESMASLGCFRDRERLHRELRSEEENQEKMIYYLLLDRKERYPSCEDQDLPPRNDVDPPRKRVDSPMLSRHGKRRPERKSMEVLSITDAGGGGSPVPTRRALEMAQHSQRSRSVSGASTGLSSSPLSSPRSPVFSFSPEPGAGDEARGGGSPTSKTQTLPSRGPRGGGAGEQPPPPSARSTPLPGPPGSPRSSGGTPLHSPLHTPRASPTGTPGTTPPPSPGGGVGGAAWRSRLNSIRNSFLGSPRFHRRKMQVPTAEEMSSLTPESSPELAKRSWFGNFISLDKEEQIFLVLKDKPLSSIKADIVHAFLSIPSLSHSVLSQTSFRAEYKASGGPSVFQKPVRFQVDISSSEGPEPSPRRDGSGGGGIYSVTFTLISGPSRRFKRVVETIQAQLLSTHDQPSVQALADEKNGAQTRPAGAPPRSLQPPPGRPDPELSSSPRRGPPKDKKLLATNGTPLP
Cyclin-dependent kinase 2 homolog (Plasmodium falciparum (isolate 3D7)), sequence (P61075 whole entry): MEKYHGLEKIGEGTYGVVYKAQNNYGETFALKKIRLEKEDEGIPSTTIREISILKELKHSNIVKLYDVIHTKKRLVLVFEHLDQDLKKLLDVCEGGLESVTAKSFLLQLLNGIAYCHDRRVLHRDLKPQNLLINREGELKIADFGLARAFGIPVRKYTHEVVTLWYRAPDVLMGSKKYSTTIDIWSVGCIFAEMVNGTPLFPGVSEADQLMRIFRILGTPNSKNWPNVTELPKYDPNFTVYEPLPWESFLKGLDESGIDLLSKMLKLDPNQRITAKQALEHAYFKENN
Serine/threonine-protein kinase 33 (Homo sapiens), sequence (Q9BYT3 whole entry, looked up, the tested form may be a part): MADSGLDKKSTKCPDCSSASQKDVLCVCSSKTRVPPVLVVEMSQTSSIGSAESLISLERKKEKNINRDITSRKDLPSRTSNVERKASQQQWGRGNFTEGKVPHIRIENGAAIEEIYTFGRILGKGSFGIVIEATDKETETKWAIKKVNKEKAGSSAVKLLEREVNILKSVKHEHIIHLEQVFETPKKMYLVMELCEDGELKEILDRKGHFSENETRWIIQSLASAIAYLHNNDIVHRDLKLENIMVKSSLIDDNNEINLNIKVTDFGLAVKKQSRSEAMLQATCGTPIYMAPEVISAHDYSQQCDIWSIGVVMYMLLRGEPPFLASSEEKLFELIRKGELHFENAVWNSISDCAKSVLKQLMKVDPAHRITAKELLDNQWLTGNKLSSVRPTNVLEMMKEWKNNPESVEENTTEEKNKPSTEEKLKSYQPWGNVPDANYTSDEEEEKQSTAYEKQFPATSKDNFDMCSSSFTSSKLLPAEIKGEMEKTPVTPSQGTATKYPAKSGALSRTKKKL
Mitogen-activated protein kinase 11 (Homo sapiens), sequence (Q15759 whole entry): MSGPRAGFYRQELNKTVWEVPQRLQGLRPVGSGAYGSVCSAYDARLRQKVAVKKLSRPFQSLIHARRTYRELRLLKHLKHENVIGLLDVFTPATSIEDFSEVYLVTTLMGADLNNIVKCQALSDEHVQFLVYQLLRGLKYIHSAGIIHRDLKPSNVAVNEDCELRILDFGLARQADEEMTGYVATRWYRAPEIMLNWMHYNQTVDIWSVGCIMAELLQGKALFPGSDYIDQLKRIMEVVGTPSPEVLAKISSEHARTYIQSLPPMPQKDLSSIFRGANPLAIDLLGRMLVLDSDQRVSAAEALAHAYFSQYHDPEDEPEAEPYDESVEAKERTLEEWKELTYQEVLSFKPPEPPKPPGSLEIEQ

Compound: Cc1c(C(=O)O)cc(-c2ccc(C3CCNCC3)cc2)c2ccc(-c3ccc(C(F)(F)F)cc3)cc12 [PPTN-NC]
- residual activity [1]: 98%
- residual activity [2]: 100%
- residual activity [3]: 100%
- residual activity [4]: 100%
- residual activity [5]: 100%
- residual activity [6]: 100%
- residual activity [7]: 100%
- residual activity [8]: 100%
- residual activity [9]: 100%
- inhibition [10]: 46.7%
- residual activity [11]: 100%
- residual activity [12]: 99%
- residual activity [13]: 100%
- residual activity [14]: 100%
- residual activity [15]: 100%
- residual activity [16]: 100%
- residual activity [17]: 100%
- residual activity [18]: 100%
- residual activity [19]: 100%
- residual activity [20]: 100%
- residual activity [21]: 93%
- residual activity [22]: 100%
- residual activity [23]: 100%
- residual activity [24]: 100%
- residual activity [25]: 95%
- residual activity [26]: 100%
- residual activity [27]: 100%
- residual activity [28]: 100%
- residual activity [29]: 87%
- inhibition [30]: 9%
- residual activity [31]: 100%
- residual activity [32]: 100%
- residual activity [33]: 100%
- residual activity [34]: 100%
- residual activity [35]: 100%
- residual activity [36]: 100%
- residual activity [37]: 100%
- residual activity [38]: 100%

Compound: O=C(O)c1cc(-c2ccc(C3CCNCC3)cc2)c2ccc(-c3ccc(C(F)(F)F)cc3)cc2c1 [PPTN]
- inhibition ([39]; Compound concentration 0.01 uM): 9%
- inhibition ([39]; Compound concentration 0.1 uM): 4%
- inhibition ([39]; Compound concentration 1.0 uM): 7%
- inhibition ([39]; Compound concentration 10.0 uM): 101%
- inhibition [40]: -9%
- residual activity [1]: 83%
- residual activity [2]: 100%
- residual activity [3]: 88%
- residual activity [4]: 100%
- residual activity [5]: 100%
- residual activity [6]: 100%
- residual activity [7]: 100%
- residual activity [8]: 82%
- residual activity [9]: 96%
- inhibition [10]: 65.6%
- residual activity [11]: 100%
- residual activity [12]: 90%
- residual activity [13]: 100%
- residual activity [14]: 100%
- residual activity [15]: 100%
- residual activity [16]: 100%
- inhibition at 60 min, 10 µM [41]: -10% (not active)
- residual activity [17]: 100%
- residual activity [18]: 100%
- residual activity [19]: 100%
- residual activity [20]: 100%
- residual activity [21]: 100%
- residual activity [22]: 100%
- residual activity [23]: 100%
- residual activity [24]: 100%
- residual activity [25]: 98%
- residual activity [26]: 100%
- residual activity [27]: 100%
- inhibition [42]: -7%
- residual activity [28]: 100%
- residual activity [29]: 73%
- inhibition [30]: 28%
- residual activity [31]: 100%
- residual activity [32]: 100%
- residual activity [33]: 100%
- residual activity [34]: 100%
- residual activity [35]: 100%
- residual activity [36]: 100%
- residual activity [37]: 100%
- residual activity [38]: 100%
